Test results as given in patent US20250064756A1, “NANOCRYSTALLINE TIO2 AND ZNO ORGANOSELENIUM SCAFFOLDS POSSESING DISELENIDE (SE-SE) FUNCTIONALITY FOR BIOMEDICAL TECHNOLOGY” (KING FAISAL UNIVERSITY, priority 2023, published 2025).
Where “and” joins values, the source holds several entries; their conditions need not be identical. Equal entries are not always repeated.

Key:
Test in all cases: Antimicrobial activity, agar diffusion assay
Type in all cases: cell-based
[1] = system: E. coli (−ve); conditions: for A %: Cip. = 100
Protocol: (§1) All reagents and solvents used in these studies were purchased from Sigma and used without purification. Melting points (MP) were measured on the Gallenkamp apparatus in degrees centigrade. The IR spectra (KBr, λmax·cm^−1) were recorded on a Mattson spectrophotometer (5000 FTIR) at King Faisal University. The ^1H & ^13C NMR spectra were measured using Varian Spectrophotometer (400 MHz), employing DMSO-d6 as the solvent and TMS internal standard at Mansoura University. The chemical shifts (δ, ppm) were recorded regarding the solvent residual peaks. GC-MS-QP-100 EX Shimadzu apparatus was used for mass measurements at Cairo University. All biological tests were carried out at the Faculty of Pharmacy, Mansoura University. All cell lines and microorganisms were purchased from the VACSERA Company (ATCC), Cairo, Egypt. DPPH and ABTS probes were obtained from Sigma.
(§2) In General, the diaryl diselenide B manifested promising antimicrobial activity against E. coli (A %=83%), S. aureus (A %=86%), and C. Albicans (A %=88%).

[2] = system: P. aeruginosa (−ve); conditions: for A %: Cip. = 100
Protocol: as §1, §2

[3] = system: B. subtilis (+ve); conditions: for A %: Cip. = 100
Protocol: as §1, §2

[4] = system: S. aureus (+ve); conditions: for A %: Cip. = 100
Protocol: as §1, §2

[5] = system: C. albicans; conditions: for A %: Col. = 100
Protocol: as §1, §2

[6] = system: A. flavus
Protocol: as §1, §2

O=C(O)c1cn(C2CC2)c2cc(N3CCNCC3)c(F)cc2c1=O [Cip., reference compound]
IZD (agar diffusion assay diameter) [1]: 26 mm
A % [1]: 100%
IZD (agar diffusion assay diameter) [2]: 23 mm
A % [2]: 100%
IZD (agar diffusion assay diameter) [3]: 23 mm
A % [3]: 100%
IZD (agar diffusion assay diameter) [4]: 24 mm
A % [4]: 100%

Nc1ccc([Se][Se]c2ccc(N)cc2)cc1 [Compound A]
IZD (agar diffusion assay diameter) [1]: 14 mm
A % [1]: 54% and 62% and 65%
IZD (agar diffusion assay diameter) [2]: 11 mm
A % [2]: 48%
IZD (agar diffusion assay diameter) [3]: 15 mm
A % [3]: 65%
IZD (agar diffusion assay diameter) [5]: 12 mm
A % [5]: 44%
IZD (agar diffusion assay diameter) [4]: 17 mm
A % [4]: 71%
IZD (agar diffusion assay diameter) [6]: 8 mm
A % ([6]; Col. = 100): 32%

COC(=O)c1cc([Se][Se]c2ccc(N)c(C(=O)OC)c2)ccc1N [Compound B, dimethyl 5,5-diselanediylbis(2-aminobenzoate)]
IZD (agar diffusion assay diameter) [1]: 19 mm
A % [1]: 83%
IZD (agar diffusion assay diameter) [5]: 21 mm
A % [5]: 88%
IZD (agar diffusion assay diameter) [4]: 18 mm
A % [4]: 86%
